From PubChem BioAssay AID248 (DTP/NCI, 2004)
Toxic doses and inconclusive results are not listed. Rule as the data show it: active = T/C of 150% or more; inactive = T/C below 125%.

Test system: L1210 leukemia ip in BDF1 mice, survival T/C
Test: NCI In Vivo Anticancer Drug Screen. Data for tumor model L1210 Leukemia (intraperitoneal) in B6D2F1 (BDF1) mice
Conditions: endpoint: mean survival time, higher = longer survival
Outline: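 Transplanted-tumor mice were given test agent; controls received vehicle only. Survival readings from the two groups were divided (treated over control).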

[1] = dose: 50.0 mg/kg/injection, schedule: Q01DX001 (ip), vehicle: carboxymethylcellulose (CMC)
[2] = dose: 200.0 mg/kg/injection, schedule: Q01DX001 (ip), vehicle: carboxymethylcellulose (CMC)
[3] = dose: 100.0 mg/kg/injection, schedule: Q04DX003 (ip), vehicle: Klucel (hydroxypropylcellulose) (HPC)
[4] = dose: 200.0 mg/kg/injection, schedule: Q04DX003 (ip), vehicle: Klucel (hydroxypropylcellulose) (HPC)
[5] = dose: 400.0 mg/kg/injection, schedule: Q04DX003 (ip), vehicle: Klucel (hydroxypropylcellulose) (HPC)
[6] = dose: 50.0 mg/kg/injection, schedule: Q01DX009 (ip), vehicle: saline with Tween-80
[7] = dose: 50.0 mg/kg/injection, schedule: Q04DX002 (ip), vehicle: Klucel (hydroxypropylcellulose) (HPC)
[8] = dose: 100.0 mg/kg/injection, schedule: Q04DX002 (ip), vehicle: Klucel (hydroxypropylcellulose) (HPC)
[9] = dose: 100.0 mg/kg/injection, schedule: Q01DX001 (ip), vehicle: saline
[10] = dose: 200.0 mg/kg/injection, schedule: Q01DX001 (ip), vehicle: saline
[11] = dose: 400.0 mg/kg/injection, schedule: Q01DX001 (ip), vehicle: saline
[12] = dose: 100.0 mg/kg/injection, schedule: Q01DX009 (ip), vehicle: saline
[13] = dose: 200.0 mg/kg/injection, schedule: Q01DX009 (ip), vehicle: saline
[14] = dose: 100.0 mg/kg/injection, schedule: Q01DX009 (ip), vehicle: saline with Tween-80
[15] = dose: 50.0 mg/kg/injection, schedule: Q01DX005 (ip), vehicle: other
[16] = dose: 100.0 mg/kg/injection, schedule: Q01DX005 (ip), vehicle: other
[17] = dose: 200.0 mg/kg/injection, schedule: Q01DX005 (ip), vehicle: other
[18] = dose: 50.0 mg/kg/injection, schedule: Q01DX009 (ip), vehicle: Klucel (hydroxypropylcellulose) (HPC)
[19] = dose: 100.0 mg/kg/injection, schedule: Q01DX009 (ip), vehicle: Klucel (hydroxypropylcellulose) (HPC)
[20] = dose: 200.0 mg/kg/injection, schedule: Q01DX009 (ip), vehicle: Klucel (hydroxypropylcellulose) (HPC)

Measured: T/C

C=CCCCCCCC=C
inactive: [1] 93 % of control | [2] 88 % of control | dose: 400.0 mg/kg/injection, schedule: Q01DX001 (ip), vehicle: carboxymethylcellulose (CMC) 93 % of control

CCCCC(C#N)C(=O)OCC (configuration not stated)
inactive: [3] 97 % of control | [4] 94 % of control | [5] 87 % of control

CC1=CCCC2(CCC3(C)CC32)C1(C)C (configuration not stated)
inactive: dose: 100.0 mg/kg/injection, schedule: Q01DX009 (ip), vehicle: acetone 89 % of control | dose: 200.0 mg/kg/injection, schedule: Q01DX009 (ip), vehicle: acetone 95 % of control

CCN(CC)CCCOC(=O)C(CCC(C)C)c1ccccc1C (configuration not stated)
inactive: dose: 12.5 mg/kg/injection, schedule: Q01DX009 (ip), vehicle: saline 93 % of control | dose: 12.5 mg/kg/injection, schedule: Q04DX003 (ip), vehicle: saline 102 % of control | dose: 25.0 mg/kg/injection, schedule: Q01DX009 (ip), vehicle: saline 102 % of control | dose: 25.0 mg/kg/injection, schedule: Q04DX003 (ip), vehicle: saline 100 % of control | dose: 50.0 mg/kg/injection, schedule: Q01DX009 (ip), vehicle: saline 93 % of control | dose: 50.0 mg/kg/injection, schedule: Q04DX003 (ip), vehicle: saline 94 % of control

C=C(Br)CN(C)C
inactive: [6] 117 % of control | dose: 100.0 mg/kg/injection, schedule: Q04DX003 (ip), vehicle: saline with Tween-80 96 % of control | dose: 200.0 mg/kg/injection, schedule: Q04DX003 (ip), vehicle: saline with Tween-80 102 % of control

O=Cc1c(Cl)[nH]c2ccccc12
inactive: [7] 90 % of control | [8] 93 % of control | dose: 200.0 mg/kg/injection, schedule: Q04DX002 (ip), vehicle: Klucel (hydroxypropylcellulose) (HPC) 101 % of control

Cc1cc2oc(=O)c3c(c2c(O)c1CN1CCCC1)CCCC3
inactive: [9] 92 % of control | [10] 89 % of control | [11] 98 % of control

CCCCCC(C[N+](C)(C)C)C(=O)/C=C/c1ccc(Cl)c(Cl)c1 (configuration not stated)
inactive: dose: 25.0 mg/kg/injection, schedule: Q04DX002 (ip), vehicle: Klucel (hydroxypropylcellulose) (HPC) 91 % of control | [7] 98 % of control | [8] 95 % of control

CC1(C)C(=O)Nc2ccccc2N1C(=O)CN1CC2CCC(CC2)C1
inactive: [12] 94 % of control | dose: 100.0 mg/kg/injection, schedule: Q04DX003 (ip), vehicle: saline 93 % of control | [13] 92 % of control | dose: 200.0 mg/kg/injection, schedule: Q04DX003 (ip), vehicle: saline 95 % of control | dose: 400.0 mg/kg/injection, schedule: Q04DX003 (ip), vehicle: saline 98 % of control

CCCNC(=O)Oc1cccc(NC(=O)CC)c1
inactive: dose: 25.0 mg/kg/injection, schedule: Q01DX009 (ip), vehicle: saline with Tween-80 100 % of control | [6] 100 % of control | [14] 92 % of control

CCCC#CC(O)(C(=O)OC)c1ccccc1 (configuration not stated)
inactive: dose: 100.0 mg/kg/injection, schedule: Q01DX001 (ip), vehicle: other 102 % of control | dose: 200.0 mg/kg/injection, schedule: Q01DX001 (ip), vehicle: other 103 % of control | dose: 400.0 mg/kg/injection, schedule: Q01DX001 (ip), vehicle: other 105 % of control

CCC(=O)OC1(c2ccccc2)CCN(C/C=C/c2cccc3ccccc23)CC1
inactive: dose: 100.0 mg/kg/injection, schedule: Q01DX001 (ip), vehicle: gum acacia 103 % of control | dose: 200.0 mg/kg/injection, schedule: Q01DX001 (ip), vehicle: gum acacia 103 % of control

CCCCCCCCCCCCCCn1cnc2c(=S)nc[nH]c21
inactive: dose: 12.5 mg/kg/injection, schedule: Q01DX005 (ip), vehicle: other 101 % of control | dose: 25.0 mg/kg/injection, schedule: Q01DX005 (ip), vehicle: other 101 % of control | [15] 96 % of control | [16] 96 % of control | [17] 95 % of control

O=c1nc2n(O)cccc-2c(=O)[nH]1
inactive: [18] 96 % of control | [19] 100 % of control | [3] 96 % of control | [20] 101 % of control | [4] 102 % of control

CCC(CC)(CCN(C)C)c1ccccc1
inactive: [1] 98 % of control | dose: 100.0 mg/kg/injection, schedule: Q01DX001 (ip), vehicle: carboxymethylcellulose (CMC) 98 % of control | [2] 104 % of control

O=C(NNC(=O)c1ccccc1O)c1ccccc1
inactive: dose: 100.0 mg/kg/injection, schedule: Q04DX002 (ip), vehicle: saline with Tween-80 93 % of control | dose: 200.0 mg/kg/injection, schedule: Q04DX002 (ip), vehicle: saline with Tween-80 93 % of control | dose: 400.0 mg/kg/injection, schedule: Q04DX002 (ip), vehicle: saline with Tween-80 97 % of control

COC1CC(OCc2ccc(Br)cc2)C(COC(c2ccccc2)(c2ccccc2)c2ccccc2)O1 (configuration not stated)
inactive: [3] 92 % of control | [4] 94 % of control | [5] 100 % of control

CC(=O)NCC(C)(C)c1ccccc1
inactive: [9] 96 % of control | [12] 102 % of control | [10] 102 % of control | [13] 100 % of control | [11] 110 % of control | dose: 400.0 mg/kg/injection, schedule: Q01DX009 (ip), vehicle: saline 102 % of control

O=C(Nc1scc2c1sc1ccccc12)c1ccccc1
inactive: dose: 100.0 mg/kg/injection, schedule: Q01DX001 (ip), vehicle: Klucel (hydroxypropylcellulose) (HPC) 93 % of control | dose: 200.0 mg/kg/injection, schedule: Q01DX001 (ip), vehicle: Klucel (hydroxypropylcellulose) (HPC) 93 % of control | dose: 400.0 mg/kg/injection, schedule: Q01DX001 (ip), vehicle: Klucel (hydroxypropylcellulose) (HPC) 107 % of control

O=C(O)C(F)(F)C(F)(F)C(=O)Nc1cc([N+](=O)[O-])ccc1F
inactive: [9] 93 % of control | [10] 93 % of control | [11] 93 % of control

O=C(O)COc1c(Br)cc(Br)cc1Br
inactive: [18] 93 % of control | [19] 96 % of control | [20] 88 % of control

S=C(Nc1ccccc1)Nc1ncn[nH]1
inactive: dose: 75.0 mg/kg/injection, schedule: Q01DX001 (ip), vehicle: carboxymethylcellulose (CMC) 95 % of control | dose: 150.0 mg/kg/injection, schedule: Q01DX001 (ip), vehicle: carboxymethylcellulose (CMC) 98 % of control | dose: 300.0 mg/kg/injection, schedule: Q01DX001 (ip), vehicle: carboxymethylcellulose (CMC) 88 % of control

CCCCCCCN(CCCCCCC)C(C)C(=O)c1ccc2cc(Br)c3ccccc3c2c1 (configuration not stated)
inactive: dose: 100.0 mg/kg/injection, schedule: Q01DX001 (ip), vehicle: alcohol 106 % of control | dose: 200.0 mg/kg/injection, schedule: Q01DX001 (ip), vehicle: alcohol 97 % of control | dose: 400.0 mg/kg/injection, schedule: Q01DX001 (ip), vehicle: alcohol 100 % of control

OCC1OCOC2COCOC12 (configuration not stated)
inactive: [14] 94 % of control | dose: 200.0 mg/kg/injection, schedule: Q01DX009 (ip), vehicle: saline with Tween-80 98 % of control | dose: 400.0 mg/kg/injection, schedule: Q01DX009 (ip), vehicle: saline with Tween-80 104 % of control

N#Cc1nc(C#N)c(C#N)nc1C#N
inactive: dose: 6.25 mg/kg/injection, schedule: Q01DX009 (ip), vehicle: Klucel (hydroxypropylcellulose) (HPC) 105 % of control | dose: 12.5 mg/kg/injection, schedule: Q01DX009 (ip), vehicle: Klucel (hydroxypropylcellulose) (HPC) 100 % of control | dose: 25.0 mg/kg/injection, schedule: Q01DX009 (ip), vehicle: Klucel (hydroxypropylcellulose) (HPC) 94 % of control | [18] 97 % of control

CC(=O)NNc1ccnc(SCc2ccccc2)n1
inactive: dose: 100.0 mg/kg/injection, schedule: Q04DX003 (ip), vehicle: gum acacia 94 % of control | dose: 200.0 mg/kg/injection, schedule: Q04DX003 (ip), vehicle: gum acacia 87 % of control | dose: 400.0 mg/kg/injection, schedule: Q04DX003 (ip), vehicle: gum acacia 94 % of control

OCC1OC(n2nc(Cl)c3ccccc32)C(O)C1O (configuration not stated)
inactive: [15] 105 % of control | [16] 102 % of control | [17] 102 % of control
